From patent publication US20070297980A1, “Geldanamycin and Derivatives Inhibit Cancer Invasion and Identify Novel Targets” (priority 2004, published 2007)
Entries after “also recorded” stand apart in the source; their conditions may differ.

What was measured:
[1] = tested on: HGF/SF-induced uPA-plasmin activity in MDCK cells; test: HGF/SF-Met-uPA-plasmin cell-based assay, MDCK cells; set-up: species or system canine; conditions: for concentration level at which HGF/SF-induced uPA activity is inhibited: words
Description: Cells were seeded in 96-well plates at 1500 cells/well (with the exception of SK-LMS-1 cells, which were seeded at 5000 cells/well) in order to detect color intensity, either with MTS (Promega) for cell growth determination or via Chromozyme PL (Boehringer Mannheim) for uPA-plasmin activity measurement. Cells were grown overnight in DMEM/10% FBS as described previously. Drugs were dissolved in DMSO and serially diluted from stock concentrations into DMEM/10% FBS medium and added to the appropriate wells. Immediately after drug or reagent addition, HGF/SF (60 ng/ml) was added to all wells (with the exception of wells used as controls to calculate basal growth and uPA-plasmin activity levels). Twenty-four hours after drug and HGF/SF addition, plates were processed for the determination of uPA-plasmin activity as follows: Wells were washed twice with DMEM (without phenol red; Life Technologies, Inc.), and 200 μl of reaction buffer [50% (v/v) 0.05 units/ml plasminogen in DMEM (without phenol red), 40% (v/v) 50 mM Tris buffer (pH 8.2), and 10% (v/v) 3 mM Chromozyme PL (Boehringer Mannheim) in 100 mM glycine solution] were added to each well.

[2] = tested on: HSP90α expression; test: Western blot, HSP90α expression; format: cell-based; conditions: MDCK and DBTRG cells
Description: (§1) Western Blot and Expression of Met and other Proteins. Cells were seeded in 60×15 mm dishes at 10^5 cells per dish. HGF/SF (100 ng/ml) was added to each dish 24 hr later. Immediately thereafter, serially diluted GA or MA was added to the relevant dishes at the concentrations indicated, and incubated for the indicated length of time before lysis. For Met and MAPK phosphorylation detection, 10^5 cells were seeded in 60×15 mm dishes and serum-starved for 24 hrs. After HGF/SF (100 ng/ml) stimulation, cells were lysed at 10 and 30 min. Control cells were not given HGF/SF. After cell lysis, protein concentration was determined by DC protein assay (Bio-Rad), and equal quantities of protein were loaded and separated by SDS-PAGE and transferred in a Western blot to PVDF membranes (Invitrogen). After blocking with 5% dry milk, membranes were blotted with specific antibodies.
After cells grew to 80% confluence, GA or MA, at various concentrations was added to the dishes. After 24 hours, cells were washed twice with PBS and lysed in TNESV buffer supplemented with Complete™ proteinase inhibitors (Roche Molecular Biochemicals). Protein concentration was determined by DC protein assay. Equal quantities of protein were used for Western blotting for Met and HSP90α. […]

[3] = tested on: cell proliferation (DBTRG, U373, SNB19 cells); test: Proliferation assay (MTS); format: cell-based, human; conditions: cell line not stated
Description: Proliferation Assay. In parallel with uPA-plasmin detection assay, cell proliferation in 96-well plates was detected with MTS. […] The plates were then incubated at 37° C., in a 5% CO2 atmosphere for 4 h. The absorbance was read on an automated spectrophotometric plate reader at 490 nm.

[4] = tested on: Met expression; test: Western blot, Met expression; format: cell-based; set-up: effect on Met expression: dose or concentration left out as unconfirmed; conditions: for Met abundance upon acute challenge: 24 hrs, MDCKG1-G3 cells chronically exposed to MA; for effect on Met expression: MDCK and DBTRG cells
Description: as §1
After cells grew to 80% confluence, GA or MA, at various concentrations was added to the dishes. After 24 hours, cells were washed twice with PBS and lysed in TNESV buffer supplemented with Complete™ proteinase inhibitors (Roche Molecular Biochemicals). Protein concentration was determined by DC protein assay. Equal quantities of protein were used for Western blotting for Met and HSP90α. For pull-down assays, 20 μl of control or GA beads adjusted for equal concentrations were added to […] of extract and rotated at 4° C. overnight. Beads were recovered by low speed centrifugation and washed 3× with TNESV. Sixty μl 2× sample buffer was added to beads and boiled for 10 min. The samples were subjected to SDS-PAGE followed by Western blot analysis.

[5] = tested on: HGF/SF-induced MDCK cell scattering; test: Scatter assay, MDCK cells; format: cell-based, canine
Description: (§2) Scatter Assay. In parallel with assessing uPA activity, 96-well plates of MDCK cells were used to detect cell scattering. Cell preparation was same as above (plasmin assay) described above. At the same time as uPA activity was measured, the cells being assayed for scatter were fixed, stained (Diff-Quik Set, Dade Behring AG) and photographed.

[6] = tested on: MDCK cells; test: Long-term culture of MDCK cells in macbecin II; format: cell-based, canine
Description: All compounds were first diluted in DMSO at 0.01M, separated into small stock aliquots (5 μl) and kept at −80° C. until use. When used, stocks were thawed and serially diluted with DMEM/10% FBS. For long term culture with MA, conditioned medium with the compound at 1, 2, or 3×10^−6 M was changed at least twice a week.

[7] = tested on: HSP90α; test: GA-affinity bead pull-down (solid-phase binding assay); conditions: MDCK and DBTRG lysates
[8] = tested on: HGF/SF-induced uPA activity in U373 cells; test: HGF/SF-Met-uPA-plasmin cell-based assay, U373 cells; set-up: species or system human
Description: (§4) HGF/SF-Met-uPA-Plasmin Cell-Based Assay (Webb et al., supra). Cells were seeded in 96-well plates at 1500 cells/well (with the exception of SK-LMS-1 cells, which were seeded at 5000 cells/well) in order to detect color intensity, either with MTS (Promega) for cell growth determination or via Chromozyme PL (Boehringer Mannheim) for uPA-plasmin activity measurement. Cells were grown overnight in DMEM/10% FBS as described previously. Drugs were dissolved in DMSO and serially diluted from stock concentrations into DMEM/10% FBS medium and added to the appropriate wells. Immediately after drug or reagent addition, HGF/SF (60 ng/ml) was added to all wells (with the exception of wells used as controls to calculate basal growth and uPA-plasmin activity levels). Twenty-four hours after drug and HGF/SF addition, plates were processed for the determination of uPA-plasmin activity as follows: Wells were washed twice with DMEM (without phenol red; Life Technologies, Inc.), and 200 μl of reaction buffer [50% (v/v) 0.05 units/ml plasminogen in DMEM (without phenol red), 40% (v/v) 50 mM Tris buffer (pH 8.2), and 10% (v/v) 3 mM Chromozyme PL (Boehringer Mannheim) in 100 mM glycine solution] were added to each well. […]

[9] = preliminary reports; Neckers et al; Sausville et al; cited from earlier work
[10] = Egorin M J et al., 2002; cited from earlier work
[11] = tested on: HGF/SF-induced Matrigel invasion by DBTRG cells; test: In vitro Matrigel invasion assay, DBTRG; format: cell-based, human; conditions: even at pM-fM concentrations
Description: (§3) In Vitro Cell Invasion Assay. The in vitro invasion assay was performed as previously described by Jeffers et al., 1996, using a 24-well invasion chamber coated with GFR-Matrigel® (Becton Dickinson). Cells were suspended in DMEM/0.1% BSA and were plated in the invasion (upper) chamber (5−25×10^3 cells/well) (DBTRG 5,000, SNB19 and U373 25,000 cells/well). The lower chamber was filled with DMEM/0.1% BSA with or without the addition of HGF/SF (100 ng/ml). To evaluate GA inhibition, GA was serially diluted into both the upper and lower chambers at final concentrations 1 μM, to 1 fM as indicated and immediately after HGF/SF addition. After 24 h, cells remaining in the upper chamber were removed by scraping. The cells that invaded through the Matrigel® and attached to the lower surface of the insert were stained using Diff-Quik (Dade Behring Inc.) and counted under a light microscope.

[12] = tested on: HGF/SF-induced Matrigel invasion by SNB19 cells; test: In vitro Matrigel invasion assay, SNB19; format: cell-based, human; conditions: even at pM-fM concentrations
Description: as §3

[13] = tested on: HGF/SF-induced cell scattering in MDCKG3 cells; test: Scatter assay, MDCKG3 cells (maintained in MA); format: cell-based, canine; conditions: MDCKG3 cells maintained in 3×10^−6 M MA; GA tested 10^−7 to 10^−15 M
Description: as §2

[14] = tested on: HGF/SF-induced Matrigel invasion by U373 cells; test: In vitro Matrigel invasion assay, U373; format: cell-based, human; conditions: even at pM-fM concentrations
Description: as §3

[15] = tested on: uPA activity in U87 cells; test: HGF/SF induction of uPA activity, U87 cells; format: cell-based, human; conditions: peak uPA induction after HGF/SF to basal
Description: (§5) Cells were seeded in 96-well plates at 1500 cells/well (with the exception of SK-LMS-1 cells, which were seeded at 5000 cells/well) in order to detect color intensity, either with MTS (Promega) for cell growth determination or via Chromozyme PL (Boehringer Mannheim) for uPA-plasmin activity measurement. Cells were grown overnight in DMEM/10% FBS as described previously. Drugs were dissolved in DMSO and serially diluted from stock concentrations into DMEM/10% FBS medium and added to the appropriate wells. Immediately after drug or reagent addition, HGF/SF (60 ng/ml) was added to all wells (with the exception of wells used as controls to calculate basal growth and uPA-plasmin activity levels). Twenty-four hours after drug and HGF/SF addition, plates were processed for the determination of uPA-plasmin activity as follows: Wells were washed twice with DMEM (without phenol red; Life Technologies, Inc.), and 200 μl of reaction buffer [50% (v/v) 0.05 units/ml plasminogen in DMEM (without phenol red), 40% (v/v) 50 mM Tris buffer (pH 8.2), and 10% (v/v) 3 mM Chromozyme PL (Boehringer Mannheim) in 100 mM glycine solution] were added to each well. […]

[16] = tested on: uPA activity in DBTRG cells; test: HGF/SF induction of uPA activity, DBTRG cells; format: cell-based, human; conditions: peak uPA induction after HGF/SF to basal
Description: as §4

[17] = tested on: uPA activity in SNB19 cells; test: HGF/SF induction of uPA activity, SNB19 cells; format: cell-based, human; conditions: peak uPA induction after HGF/SF to basal
Description: as §4

[18] = tested on: uPA activity in PC-3 cells; test: HGF/SF induction of uPA activity, PC-3 cells; format: cell-based, human; conditions: peak uPA induction after HGF/SF to basal
Description: as §4

[19] = tested on: uPA activity in SK-LMS-1 cells; test: HGF/SF induction of uPA activity, SK-LMS-1 cells; format: cell-based, human; conditions: peak uPA induction after HGF/SF to basal
Description: as §5

[20] = tested on: uPA activity in DU145 cells; test: HGF/SF induction of uPA activity, DU145 cells; format: cell-based, human; conditions: peak uPA induction after HGF/SF to basal
Description: as §5

[21] = tested on: uPA activity in U118 cells; test: HGF/SF induction of uPA activity, U118 cells; format: cell-based, human; conditions: peak uPA induction after HGF/SF to basal
Description: as §4

[22] = tested on: uPA activity in SW1874 cells; test: HGF/SF induction of uPA activity, SW1874 cells; format: cell-based, human; conditions: peak uPA induction after HGF/SF to basal
Description: as §5

## C[C@@H]1C[C@H]2O[C@@H]2/C=C\C=C\C(=O)Cc2c(Cl)c(O)cc(O)c2C(=O)O1 [Compound 3, Radicicol, reference compound]
[1]; MDCK cells
  activity in HGF/SF-induced uPA-plasmin cell-based assays (words): poor activity; also recorded: inactive
[1]
  concentration level at which HGF/SF-induced uPA activity is inhibited: only at nanomolar levels
[1]; listed as RA
  concentration level at which HGF/SF-induced uPA activity is inhibited: only at nM or higher concentrations

## COC1CC(C)C(OC)c2cc(O)cc(c2O)NC(=O)/C(C)=C\C=C/C(C)C(OC(N)=O)/C(C)=C\C(C)C1OC (centres unmarked) [Compound 21, Macbecin II, reference compound]
[2]
  effect on HSP90α expression: up-regulation
[3]
  concentration level at which proliferation is inhibited: nM levels
[4]; 10^−5 M MA
  Met abundance upon acute challenge: less of a decrease
[4]; at MA
  effect on Met expression: downregulation
[5]; 3×10^−6 M MA
  effect on HGF/SF-induced scattering of MDCK cells: effectively blocked
[1]; MDCK cells
  activity in HGF/SF-induced uPA-plasmin cell-based assays (words): inactive
[1]; MDCK cells, listed as macbecin II
  activity in HGF/SF-induced uPA-plasmin cell-based assays (words): poor activity
[1]
  concentration level at which HGF/SF-induced uPA activity is inhibited: only at nM or higher concentrations
[6]; MDCK cells maintained for several months
  highest non-toxic concentration: 3 µM
[6]; long-term culture
  MA concentration up to which MDCK cells continued to proliferate: ≤ 3 µM
[7]; cells treated with 10^−5 M MA
  total HSP90α recovered with GA-affinity beads: negligible levels
[7]; cells treated with 10^−6 M MA
  HSP90α available to the GA affinity beads: reduced

## CO[C@H]1/C=C\C=C(/C)C(=O)NC2=CC(=O)C(N3CCC3)=C(C[C@@H](C)C[C@H](OC)[C@H](OC(C)=O)[C@@H](C)/C=C(\C)[C@@H]1OC(N)=O)C2=O [Compound 18, 11-O-Acetyl-17-(1-azetidinyl)-17-demethoxygeldanamycin]
[1]; MDCK cells
  activity in HGF/SF-induced uPA-plasmin cell-based assays (words): inactive

## COc1c(O)cc2c(O)c1C[C@@H](C)C[C@H](OC)[C@H](O)[C@@H](C)/C=C(\C)[C@H](OC(N)=O)[C@@H](OC)/C=C\C=C(/C)C(=O)N2 [Compound 20, 17,21-Dihydrogeldanamycin]
[1]; MDCK cells
  activity in HGF/SF-induced uPA-plasmin cell-based assays (words): active

## CO[C@H]1[C@@H](OC)C[C@H](C)[C@@H](OC)C2=CC(=O)C=C(NC(=O)/C(C)=C/C=C\[C@H](C)[C@@H](OC(N)=O)/C(C)=C/[C@@H]1C)C2=O [Compound 2, Macbecin I, reference compound]
[1]; MDCK cells
  activity in HGF/SF-induced uPA-plasmin cell-based assays (words): inactive
[1]; MDCK cells, listed as macbecin I
  activity in HGF/SF-induced uPA-plasmin cell-based assays (words): poor activity

## CO[C@H]1/C=C\C=C(/C)C(=O)NC2=CC(=O)C(N3CCC3)=C(C[C@@H](C)C[C@H](OC)[C@H](O)[C@@H](C)/C=C(\C)[C@@H]1OC(N)=O)C2=O [Compound 14, 17-(1-Azetidinyl)-17-demethoxygeldanamycin]
[1]; MDCK cells
  activity in HGF/SF-induced uPA-plasmin cell-based assays (words): active

## C=CCNC1=C2C[C@@H](C)C[C@H](OC)[C@H](O)[C@@H](C)/C=C(\C)[C@H](OC(N)=O)[C@@H](OC)/C=C\C=C(/C)C(=O)NC(=CC1=O)C2=O [Compound 4, 17-Allylamino-17-demethoxygeldanamycin]
[5]; FIG. 10
  concentration range inhibiting HGF/SF-induced MDCK cell scattering: pM to fM range
[1]; MDCK cells
  lowest concentration at which inhibitory effects on uPA activity observed: 10^−17 M
  activity in HGF/SF-induced uPA-plasmin cell-based assays (words): active
[8]; U373 cells
  lowest concentration at which inhibitory effects on uPA activity observed: 10^−17 M
[9]
  hepatic toxicity in clinical investigations: dose-limiting

## CO[C@H]1/C=C\C=C(/C)C(=O)NC2=CC(=O)C(N3CCC3)=C(C[C@@H](C)C[C@H](OC)[C@H](O)[C@@H](C)/C=C(\C)[C@@H]1O)C2=O [Compound 19, 17-(1-Azetidinyl)-7-decarbamyl-17-demethoxygeldanamycin]
[1]; MDCK cells
  activity in HGF/SF-induced uPA-plasmin cell-based assays (words): completely inactive

## COC1/C=C\C=C(/C)C(=O)NC2=CC(=O)C(NCCN(C)C)=C(C[C@@H](C)C[C@H](OC)[C@H](O)[C@@H](C)/C=C(\C)[C@@H]1OC(N)=O)C2=O (some centres unmarked) [Compound 5, 17-(2-Dimethylaminoethyl)amino-17-demethoxygeldanamycin]
[10]
  quantity not named in the sentence ("was essentially 100% when given i.p."): ~100%

## COC1=C2C[C@@H](C)C[C@H](OC)[C@H](O)[C@@H](C)/C=C(\C)[C@H](OC(N)=O)[C@@H](OC)/C=C\C=C(/C)C(=O)NC(=CC1=O)C2=O [Compound 1, (+)-Geldanamycin]
[4]; 10^−6 M GA
  Met abundance upon acute challenge: dramatic decreases
[4]; GA at nM levels
  effect on Met expression: downregulates
[1]; MDCK cells
  activity in HGF/SF-induced uPA-plasmin cell-based assays (words): active
[11]
  effect on HGF/SF-induced Matrigel invasion: abolished
[12]
  effect on HGF/SF-induced Matrigel invasion: abolished
[13]
  GA concentration at which scattering was again fully observed: 10^−15 M
[14]
  effect on HGF/SF-induced Matrigel invasion: abolished

## HGF/SF: hepatocyte growth factor/scatter factor, ligand of the Met receptor tyrosine kinase
[15]
  uPA activity induction (fold): 1.04 fold
[1]; MDCK, peak uPA induction after HGF/SF (0-60 ng/ml, 24 h) to basal
  uPA activity induction (fold): 4.27 fold
[16]
  uPA activity induction (fold): 2.28 fold
[17]
  uPA activity induction (fold): 1.95 fold
[8]; U373, peak uPA induction after HGF/SF to basal
  uPA activity induction (fold): 1.56 fold
[18]
  uPA activity induction (fold): 1.00 fold
[19]
  uPA activity induction (fold): 2.01 fold
[20]
  uPA activity induction (fold): 1.06 fold
[21]
  uPA activity induction (fold): 1.12 fold
[22]
  uPA activity induction (fold): 0.97 fold
